How the values were obtained:
[1] = biological target: T1, hCTPS1 enzyme (Homo sapiens, UniProt P17812); assay: Inhibition of CTPS1 enzyme activity (ADP-Glo method); type: biochemical; conditions: hCTPS1, 90 min reaction at 25° C.
T1 sequence (P17812 1-591): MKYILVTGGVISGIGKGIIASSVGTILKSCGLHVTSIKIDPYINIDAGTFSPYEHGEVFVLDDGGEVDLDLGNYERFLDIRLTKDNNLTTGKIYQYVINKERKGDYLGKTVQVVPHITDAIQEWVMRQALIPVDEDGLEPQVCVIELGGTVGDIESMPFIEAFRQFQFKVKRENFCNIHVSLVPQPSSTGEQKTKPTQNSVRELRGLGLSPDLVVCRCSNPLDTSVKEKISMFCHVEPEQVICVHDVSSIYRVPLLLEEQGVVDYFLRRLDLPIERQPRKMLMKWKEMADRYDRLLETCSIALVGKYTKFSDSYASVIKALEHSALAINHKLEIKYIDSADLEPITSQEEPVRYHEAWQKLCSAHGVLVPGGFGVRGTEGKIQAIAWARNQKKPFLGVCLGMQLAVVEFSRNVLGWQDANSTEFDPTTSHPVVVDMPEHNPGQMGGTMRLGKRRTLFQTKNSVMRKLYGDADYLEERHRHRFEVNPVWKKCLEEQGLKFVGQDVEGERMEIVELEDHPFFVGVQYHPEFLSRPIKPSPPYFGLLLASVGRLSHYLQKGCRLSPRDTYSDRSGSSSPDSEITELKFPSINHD
Experimental: The enzyme activity of CTPS1 was tested using the ADP-Glo method. Compounds were serially diluted in DMSO with 3-fold gradients across ten concentrations. Transfer 0.1 μL of diluted compound to a 384-well plate, centrifuge at 1000 rpm for 1 min. Add 2.5 μL of hCTPS1 enzyme working solution, centrifuge at 1000 rpm for 1 min, and incubate at 25° C. for 10 min. Add 2.5 μL of ATP & UTP solution and incubate at 25° C. for 10 min. Add 5 μL of substrate solution to initiate the reaction and incubate at 25° C. for 90 min. Add 10 μL of ADP-Glo solution to the 384-well plate, centrifuge at 1000 rpm for 1 min, incubate at 25° C. for 40 min, add 20 μL of detection solution, centrifuge at 1000 rpm for 1 min, and incubate at 25° C. for 60 min. […] were read using a BMG microplate reader. Inhibition rate (%) was calculated as follows: Inhibition rate (%)=[(DMSO control well signal−Compound well signal)/(DMSO control well signal−Blank control well signal)]×100%. IC50 values for compounds were analyzed by nonlinear regression in XLFit 5.5.0 software using the formula: Y=Bottom+(Top−Bottom)/(1+10^((LogIC50−X)*HillSlope)) where Y is the inhibition rate and X is the log value of compound concentration.

[2] = test system: Jurkat cells; assay: Inhibition of Jurkat cell proliferation (CellTiter-Glo, 72 hours); type: cell-based; conditions: Homo sapiens; Jurkat cells, 72 hours, CellTiter-Glo; read-out: Jurkat (IC50)
Experimental: Select Jurkat cells in good growth condition and digest them with trypsin. Add fresh culture medium, mix thoroughly, and centrifuge at 1000 rpm for 5 minutes. Seed the cells into a 96-well plate at a density of 10,000 cells per well, and incubate overnight in a 37° C. incubator. On the following day, take out of the culture plate and treat the cells with compounds prepared in a five-fold serial dilution. Return the plate to the 37° C. incubator and continue incubation for 72 hours.
After incubation, bring out the cell culture plate and equilibrate it to room temperature. Add 100 μL of CellTiter-Glo reagent to each well, shake in the dark for 2 minutes, and incubate for 10 minutes. Measure the luminescence using an Enspire plate reader. Calculate the inhibition rate using the following formula: Inhibition rate (%)=(1−(RLU_compound−RLU_blank)/(RLU_DMSO−RLU_blank))×100%. Plot the dose-response curve and calculate the IC50 value using XLFit.

[3] = in vivo; parameters: species or system SD rats; conditions: male, SD, rat, po
Experimental: Instrumentation: SCIEX Triple Quad 6500+ triple quadrupole liquid chromatography-mass spectrometry system (LC-MS/MS), operating software is Analyst 1.7.2 (Applied Biosystems, USA); ExionLC liquid chromatography system; Microsoft Excel was used for data calculation and processing. Pharmacokinetic parameters were calculated using the statistical moment method with WinNonlin 8.2 software. Key kinetic parameters included Tmax, T1/2, Cmax, AUC0-24 h etc. Column: Synergi 4 μm Fusion-RP 80 Å Luna C18 2 mm*50 mm, 4 μm; Column temperature: 40° C.; Mobile phase A: Water (0.1% formic acid); Mobile phase B: Acetonitrile; Flow rate: 0.8 mL/min; Gradient elution is adopted, the elution gradient is 0.10 min: 15% B; 1.60 min: 95% B; 1.90 min: 95% B; 1.91 min: 15% B; 2.20 min: 15% B. Injection volume: 1 μL.
Animals: 3 male SD rats with a weight range of 200-220 g were purchased and kept in the laboratory of the Experimental Animal Center for 3 days and then used. They were fasted for 12 hours predose and 4 hours after dosing. Drinking water was free during the test. After the rats were gavage, blood samples were taken according to the established time point.
Solvent: 0.4% ethanol+0.4% Tween80+99.2% (0.5% methylcellulose M450). Preparation of the solution for intragastric administration: Compounds were accurately weighed and added to the solvent. The mixture was then subjected to vortex mixing and sonication until a homogeneous suspension was achieved, thereby preparing medicinal solutions of the desired concentrations.
Compound samples: Typically, multiple structurally analogous compounds (with molecular weights differing by more than 2 units) were accurately weighed and administered together (cassette PK). This approach allows for the simultaneous screening of multiple compounds and comparison of their oral absorption rates. Single compound administration was also employed to study the pharmacokinetics of drug samples in rats.
After intragastric administration, blood was collected from the jugular vein at 0.25, 0.5, 1, 2, 4, 8, 10 and 24 hours. Transfer 20 μL of plasma sample (for blank samples and internal standard blank samples, add 20 μL of blank plasma) to a 1.5 mL centrifuge tube, add 200 μL of internal standard solution (50% methanol in acetonitrile (concentration 100 ng/mL)) (for Double blank samples, add 200 μL of 50% methanol in acetonitrile solution). Vortex the samples for 5 minutes, then centrifuge at 14000 rpm and 4° C. for 5 minutes. Transfer 80 μL and add to 80 μL of water, mix uniformly, and submit for LC-MS/MS analysis.
The compounds were accurately weighed to prepare different concentrations, and quantitative analysis on mass spectrometry was performed to establish a standard curve, and then the concentration of the above-mentioned compound in the plasma was tested to obtain its concentration at different time points. All measurement data were collected and processed by relevant software, and the statistical moment method was used to calculate the pharmacokinetic parameters (mainly including kinetic parameters Tmax, T1/2, Cmax, AUC0-24 h etc).

Row | IC50 [2] [nM] | Compound | further results
1 | < 50 | CCOc1cncc(-c2ccc(NC(=O)C3(c4ccnc(NS(=O)(=O)C5CC5)n4)CCC(=Cc4cccnc4)CC3)nc2)n1 (stereo not shown) [Compound 55] | IC50 [1]: < 25 nM
2 | < 30 | CCOc1cncc(-c2ccc(NC(=O)C3(c4ccnc(NS(=O)(=O)C5CC5)n4)CCC(=CCN(C)CCOC)CC3)nc2)n1 (stereo not shown) [Compound 29] | IC50 [1]: < 100 nM
3 | < 50 | CCOc1cncc(-c2ccc(NC(=O)C3(c4ccnc(NS(=O)(=O)C5CC5)n4)CCC(=Cc4cncnc4)CC3)nc2)n1 (stereo not shown) [Compound 56] | –
4 | < 1000 | CCOc1cncc(-c2ccc(NC(=O)C3(c4ccnc(NS(=O)(=O)C5CC5)n4)CCC(=CCc4ccccc4)CC3)nc2)n1 (stereo not shown) [Compound 21] | –
5 | < 200 | CCOc1cncc(-c2ccc(NC(=O)C3(c4ccnc(NS(=O)(=O)C5CC5)n4)CCN(c4ccncc4)CC3)nc2)n1 [Compound 35] | –
6 | < 50 | CCOc1cncc(-c2ccc(NC(=O)C3(c4ccnc(NS(=O)(=O)C5CC5)n4)CCC(=CCN4CCCC4)CC3)nc2)n1 (stereo not shown) [Compound 16] | IC50 [1]: < 50 nM
7 | < 50 | CCOc1cncc(-c2ccc(NC(=O)C3(c4ccnc(NS(=O)(=O)C5CC5)n4)CCC(=CCN4CCN(C)CC4)CC3)nc2)n1 (stereo not shown) [Compound 13] | IC50 [1]: < 50 nM
8 | < 200 | CCOc1cncc(-c2ccc(NC(=O)C3(c4ccnc(NS(=O)(=O)C5CC5)n4)CC(=CF)C3)nc2)n1 (stereo not shown) [Compound 20] | –
9 | < 200 | CCOc1cncc(-c2cnc(NC(=O)C3(c4ccnc(NS(=O)(=O)C5CC5)n4)CCC(=C(F)F)CC3)c(F)c2)n1 (stereo not shown) [Compound 71] | –
10 | < 50 | CCOc1cncc(-c2ccc(NC(=O)C3(c4ccnc(NS(=O)(=O)C5CC5)n4)CCC(=C(F)F)CC3)c(F)c2)n1 (stereo not shown) [Compound 65] | –
11 | < 15 | CCOc1cncc(-c2ccc(NC(=O)C3(c4ccnc(NS(=O)(=O)C5CC5)n4)CCC(=CCO)CC3)nc2)n1 (stereo not shown) [Compound 5] | AUC(0-t) ([3]; 3 mg/kg): 417 ng·h/mL; Cmax ([3]; 3 mg/kg): 359 ng/mL; Tmax ([3]; 3 mg/kg): 0.25 h; half-life ([3]; 3 mg/kg): 1.73 h
12 | < 50 | CCOc1cncc(-c2ccc(NC(=O)C3(c4ccnc(NS(=O)(=O)C5CC5)n4)CCC4(CC3)CC(=C(F)F)C4)nc2)n1 (stereo not shown) [Compound 64] | –
13 | < 30 | CCOc1cncc(-c2ccc(NC(=O)C3(c4ccnc(NS(=O)(=O)C5CC5)n4)CCC(=C(C)C4COC4)CC3)nc2)n1 (stereo not shown) [Compound 51] | AUC(0-t) ([3]; 2 mg/kg): 62.7 ng·h/mL; Cmax ([3]; 2 mg/kg): 14.5 ng/mL; Tmax ([3]; 2 mg/kg): 4 h; half-life ([3]; 2 mg/kg): 1.56 h
14 | < 100 | CCOc1cncc(-c2ccc(NC(=O)C3(c4ccnc(NS(=O)(=O)C5CC5)n4)CCC(=Cc4ccsc4)CC3)nc2)n1 (stereo not shown) [Compound 53] | –
15 | < 100 | CCOc1cncc(-c2ccc(NC(=O)C3(c4ccnc(NS(=O)(=O)C5CC5)n4)CCC(=CCN)CC3)nc2)n1 (stereo not shown) [Compound 41] | –
16 | < 200 | CCOc1cncc(-c2ccc(NC(=O)C3(c4ccnc(NS(=O)(=O)C5CC5)n4)CCC(=CCOC)CC3)nc2)n1 (stereo not shown) [Compound 17] | –
17 | < 15 | CCOc1cncc(-c2ccc(NC(=O)C3(c4ccnc(NS(=O)(=O)C5CC5)n4)CCC(=CC4CC(O)C4)CC3)nc2)n1 (stereo not shown) [Compound 59] | –
18 | < 50 | C=C1CCC(C(=O)Nc2ccc(-c3cncc(OCC)n3)cn2)(c2ccnc(NS(=O)(=O)C3CC3)n2)CC1 [Compound 9] | –
19 | < 200 | CCOc1cncc(-c2ccc(NC(=O)C3(c4ccnc(NS(=O)(=O)C5CC5)n4)CCC(=CC(N)=O)CC3)nc2)n1 (stereo not shown) [Compound 40] | –
20 | < 50 | CCOc1cncc(-c2ccc(NC(=O)C3(c4nccc(NS(=O)(=O)C5CC5)n4)CCC(=C(F)F)CC3)nc2)n1 (stereo not shown) [Compound 66] | –
21 | < 100 | CCOc1cncc(-c2ccc(NC(=O)C3(c4ccnc(N(C)S(=O)(=O)C5CC5)n4)CCC(=CCO)CC3)nc2)n1 (stereo not shown) [Compound 6] | –
22 | < 1000 | CCOc1cncc(-c2ccc(NC(=O)C(=C3CCOCC3)c3ccnc(NS(=O)(=O)C4CC4)n3)nc2)n1 [Compound 33] | –
23 | < 750 | O=C(Nc1ccc(-c2cncc(OC3CC(=C(F)F)C3)n2)cn1)C1(c2ccnc(NS(=O)(=O)C3CC3)n2)CCOCC1 (stereo not shown) [Compound 7] | –
24 | < 30 | CCOc1cncc(-c2ccc(NC(=O)C3(c4ccnc(NS(=O)(=O)C5CC5)n4)CCN(c4cccnc4)CC3)nc2)n1 [Compound 25] | –
25 | – | CCOc1cncc(-c2ccc(C(=O)NC3(c4ccnc(NS(=O)(=O)C5CC5)n4)CCC(=C(F)F)CC3)nc2)n1 (stereo not shown) [Compound 70] | IC50 [1]: < 200 nM
26 | < 50 | CCOc1cncc(-c2ccc(NC(=O)C3(c4ccnc(NS(=O)(=O)C5CC5)n4)CCC(=C(F)C#N)CC3)nc2)n1 (stereo not shown) [Compound 49] | –
27 | < 50 | CCOc1cncc(-c2ccc(NC(=O)C3(c4ccnc(NS(=O)(=O)C5CC5)n4)CCC(=Cc4ccoc4)CC3)nc2)n1 (stereo not shown) [Compound 42] | –
28 | < 30 | CCOc1cncc(-c2ccc(NC(=O)C3(c4ccnc(NS(=O)(=O)C5CC5)n4)CCC(=Cc4ccccn4)CC3)nc2)n1 (stereo not shown) [Compound 38] | –

Row | Compound | IC50 [2] [nM] | further results
29 | CCOc1cncc(-c2ccc(NC(=O)C3(c4ccnc(NS(=O)(=O)C5CC5)n4)CCC(=CC(C)(C)O)CC3)nc2)n1 (stereo not shown) [Compound 57] | < 50 | –
30 | CCOc1cncc(-c2ccc(NC(=O)C3(c4ccnc(NS(=O)(=O)C5CC5)n4)CCC(=CC(C)=O)CC3)nc2)n1 (stereo not shown) [Compound 60] | < 30 | –
31 | CCOC(=O)C(F)=C1CCC(C(=O)Nc2ccc(-c3cncc(OCC)n3)cn2)(c2ccnc(NS(=O)(=O)C3CC3)n2)CC1 (stereo not shown) [Compound 43] | < 50 | –
32 | CCOc1cncc(-c2cnc(C(=O)NC3(c4ccnc(NS(=O)(=O)C5CC5)n4)CCC(=C(F)F)CC3)s2)n1 (stereo not shown) [Compound 72] | < 200 | –
33 | CCOc1cncc(-c2ccc(NC(=O)C3(c4csc(NS(=O)(=O)C5CC5)n4)CCC(=C(F)F)CC3)nc2)n1 (stereo not shown) [Compound 73] | < 30 | –
34 | CCOc1cncc(-c2ccc(NC(=O)C3(c4ccnc(NS(=O)(=O)C5CC5)n4)CCC(=C(F)C(C)=O)CC3)nc2)n1 (stereo not shown) [Compound 61] | < 50 | –
